Experimental data taken from US10294202B2, “Pyrrolidinones as herbicides” (FMC Corporation, priority 2013, dated 2019).

Legend:
[1] = test system: corn; experiment: Test C pre-/postemergence herbicide test; format: in vivo, Zea mays; settings: Preemergence; for Plant response rating, Corn: 125 g ai/ha; for Plant response rating (scale of 0 to 100), Corn: 250 g ai/ha
Summary of the method: (§1)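 Test compounds, formulated in a surfactant-containing non-phytotoxic solvent blend, are applied to seeded loam/sand soil (preemergence) and to young plants at the 1- to 4-leaf stage in peat-based medium (postemergence). Plants stay 13 to 15 days under greenhouse conditions, then are scored visually relative to controls, 0 = no effect, 100 = complete control.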

[2] = test system: ryegrass, Italian; experiment: Test C pre-/postemergence herbicide test; format: in vivo, Lolium multiflorum; settings: Preemergence; for Plant response rating, Ryegrass, Italian: 125 g ai/ha; for Plant response rating (scale of 0 to 100), Ryegrass, Italian: 250 g ai/ha
Summary of the method: as §1

[3] = test system: johnsongrass; experiment: Test C pre-/postemergence herbicide test; format: in vivo, Sorghum halepense; settings: Preemergence; for Plant response rating, Johnsongrass: 125 g ai/ha; for Plant response rating (scale of 0 to 100), Johnsongrass: 250 g ai/ha
Summary of the method: as §1

[4] = test system: crabgrass, large; experiment: Test C pre-/postemergence herbicide test; format: in vivo, Digitaria sanguinalis; settings: Preemergence; for Plant response rating, Crabgrass, Large: 125 g ai/ha; for Plant response rating (scale of 0 to 100), Crabgrass, Large: 250 g ai/ha
Summary of the method: as §1

[5] = test system: wheat (winter wheat); experiment: Test C pre-/postemergence herbicide test; format: in vivo, Triticum aestivum; settings: Preemergence; for Plant response rating (scale of 0 to 100), Wheat: 250 g ai/ha
Summary of the method: as §1

[6] = test system: foxtail, giant; experiment: Test C pre-/postemergence herbicide test; format: in vivo, Setaria faberii; settings: Preemergence; for Plant response rating, Foxtail, Giant: 125 g ai/ha; for Plant response rating (scale of 0 to 100), Foxtail, Giant: 250 g ai/ha
Summary of the method: as §1

[7] = test system: barnyardgrass; experiment: Test A pre-/postemergence herbicide test; format: in vivo, Echinochloa crus-galli
Summary of the method: (§2)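 Planted in loam–sand blend; treated the same day preemergence by directed soil spray, while separately grown plants at one- to two-leaf stage got postemergence spray. Compared visually with untreated controls after approximately 10 days; 100 means complete control.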

[8] = test system: morningglory; experiment: Test C pre-/postemergence herbicide test; format: in vivo, Ipomoea coccinea; settings: Preemergence; for Plant response rating, Morningglory: 125 g ai/ha; for Plant response rating (scale of 0 to 100), Morningglory: 250 g ai/ha
Summary of the method: as §1

[9] = test system: corn; experiment: Test A pre-/postemergence herbicide test; format: in vivo, Zea mays
Summary of the method: as §2

[10] = test system: galium; experiment: Test C pre-/postemergence herbicide test; format: in vivo, Galium aparine; settings: Preemergence; for Plant response rating, Galium: 125 g ai/ha; for Plant response rating (scale of 0 to 100), Galium: 250 g ai/ha
Summary of the method: as §1

[11] = test system: wheat; experiment: Test A pre-/postemergence herbicide test; format: in vivo, Triticum aestivum
Summary of the method: as §2

[12] = test system: pigweed; experiment: Test A pre-/postemergence herbicide test; format: in vivo, Amaranthus retroflexus
Summary of the method: as §2

[13] = test system: soybean; experiment: Test C pre-/postemergence herbicide test; format: in vivo, Glycine max; settings: Preemergence; for Plant response rating, Soybean: 125 g ai/ha; for Plant response rating (scale of 0 to 100), Soybean: 250 g ai/ha
Summary of the method: as §1

[14] = 31 g ai/ha, scale 0 to 100, 0 is no effect and 100 is complete control
[15] = 62 g ai/ha, scale 0 to 100 (0 no effect, 100 complete control)
[16] = scale 0 to 100 (0 no effect, 100 complete control)
[17] = Postemergence, 125 g ai/ha, 0 to 100 scale, 0 is no effect, 100 is complete control
[18] = Postemergence, 500 g ai/ha, 0 to 100 scale (0 no effect, 100 complete control)
[19] = Preemergence, 125 g ai/ha, 0 to 100 scale where 0 is no effect and 100 is complete control
[20] = preemergence, 500 g ai/ha, 0 to 100 scale, 0 is no effect and 100 is complete control

## O=C1NCC(c2ccc(C(F)(F)F)nc2)C1C(=O)Nc1ccccc1F (racemic) [Compound 262]
[1]; [14]
  Corn plant response rating: 0
[1]; [15]
  Corn plant response rating: 0
[1]; [16]
  Plant response rating, Corn: 10
[1]
  Plant response rating (scale of 0 to 100), Corn: 10
[2]; [14]
  Ryegrass, Italian plant response rating: 0
[2]; [15]
  Ryegrass, Italian plant response rating: 0
[2]; [16]
  Plant response rating, Ryegrass, Italian: 0
[2]
  Plant response rating (scale of 0 to 100), Ryegrass, Italian: 0
[3]; [14]
  Johnsongrass plant response rating: 0
[3]; [15]
  Johnsongrass plant response rating: 0
[3]; [16]
  Plant response rating, Johnsongrass: 0
[3]
  Plant response rating (scale of 0 to 100), Johnsongrass: 0
[4]; [14]
  Crabgrass, Large plant response rating: 95
[4]; [15]
  Crabgrass, Large plant response rating: 98
[4]; [16]
  Plant response rating, Crabgrass, Large: 100
[4]
  Plant response rating (scale of 0 to 100), Crabgrass, Large: 100
[5]; [14]
  Wheat plant response rating: 0
[5]; [15]
  Wheat plant response rating: 0
[5]
  Plant response rating (scale of 0 to 100), Wheat: 0
[6]; [14]
  Foxtail, Giant plant response rating: 20
[6]; [15]
  Foxtail, Giant plant response rating: 70
[6]; [16]
  Plant response rating, Foxtail, Giant: 95
[6]
  Plant response rating (scale of 0 to 100), Foxtail, Giant: 95
[7]; [17]
  Plant response rating, Barnyardgrass: 60
[7]; [18]
  Plant response rating, Barnyardgrass: 70
[7]; [19]
  Plant response rating, Barnyardgrass: 80
[7]; [20]
  Plant response rating, Barnyardgrass: 90
[8]; [14]
  Morningglory plant response rating: 0
[8]; [15]
  Morningglory plant response rating: 0
[8]; [16]
  Plant response rating, Morningglory: 10
[8]
  Plant response rating (scale of 0 to 100), Morningglory: 10
[9]; [17]
  Plant response rating, Corn: 0
[9]; [18]
  Plant response rating, Corn: 0
[9]; [19]
  Plant response rating, Corn: 0
[9]; [20]
  Plant response rating, Corn: 0
[10]; [14]
  Galium plant response rating: 0
[10]; [15]
  Galium plant response rating: 40
[10]; [16]
  Plant response rating, Galium: 60
[10]
  Plant response rating (scale of 0 to 100), Galium: 85
[11]; [17]
  Plant response rating, Wheat: 0
[11]; [18]
  Plant response rating, Wheat: 0
[11]; [19]
  Plant response rating, Wheat: 0
[11]; [20]
  Plant response rating, Wheat: 0
[12]; [17]
  Plant response rating, Pigweed: 0
[12]; [18]
  Plant response rating, Pigweed: 0
[12]; [19]
  Plant response rating, Pigweed: 50
[12]; [20]
  Plant response rating, Pigweed: 70
[13]; [14]
  Soybean plant response rating: 0
[13]; [15]
  Soybean plant response rating: 0
[13]; [16]
  Plant response rating, Soybean: 0
[13]
  Plant response rating (scale of 0 to 100), Soybean: 0

## O=C1NCC(c2ccc(C(F)(F)F)nc2)C1C(=O)Nc1cccc(F)c1F (racemic) [Compound 263]
[1]; [14]
  Corn plant response rating: 0
[1]; [15]
  Corn plant response rating: 0
[1]; [16]
  Plant response rating, Corn: 0
[1]
  Plant response rating (scale of 0 to 100), Corn: 10
[2]; [14]
  Ryegrass, Italian plant response rating: 0
[2]; [15]
  Ryegrass, Italian plant response rating: 0
[2]; [16]
  Plant response rating, Ryegrass, Italian: 0
[2]
  Plant response rating (scale of 0 to 100), Ryegrass, Italian: 35
[3]; [14]
  Johnsongrass plant response rating: 5
[3]; [15]
  Johnsongrass plant response rating: 0
[3]; [16]
  Plant response rating, Johnsongrass: 0
[3]
  Plant response rating (scale of 0 to 100), Johnsongrass: 0
[4]; [14]
  Crabgrass, Large plant response rating: 100
[4]; [15]
  Crabgrass, Large plant response rating: 100
[4]; [16]
  Plant response rating, Crabgrass, Large: 100
[4]
  Plant response rating (scale of 0 to 100), Crabgrass, Large: 100
[5]; [14]
  Wheat plant response rating: 0
[5]; [15]
  Wheat plant response rating: 10
[5]
  Plant response rating (scale of 0 to 100), Wheat: 50
[6]; [14]
  Foxtail, Giant plant response rating: 65
[6]; [15]
  Foxtail, Giant plant response rating: 95
[6]; [16]
  Plant response rating, Foxtail, Giant: 98
[6]
  Plant response rating (scale of 0 to 100), Foxtail, Giant: 98
[7]; [17]
  Plant response rating, Barnyardgrass: 70
[7]; [18]
  Plant response rating, Barnyardgrass: 80
[7]; [19]
  Plant response rating, Barnyardgrass: 80
[7]; [20]
  Plant response rating, Barnyardgrass: 90
[8]; [14]
  Morningglory plant response rating: 0
[8]; [15]
  Morningglory plant response rating: 0
[8]; [16]
  Plant response rating, Morningglory: 20
[8]
  Plant response rating (scale of 0 to 100), Morningglory: 10
[9]; [17]
  Plant response rating, Corn: 40
[9]; [18]
  Plant response rating, Corn: 60
[9]; [19]
  Plant response rating, Corn: 0
[9]; [20]
  Plant response rating, Corn: 70
[10]; [14]
  Galium plant response rating: 70
[10]; [15]
  Galium plant response rating: 85
[10]; [16]
  Plant response rating, Galium: 85
[10]
  Plant response rating (scale of 0 to 100), Galium: 90
[11]; [18]
  Plant response rating, Wheat: 60
[11]; [19]
  Plant response rating, Wheat: 0
[11]; [20]
  Plant response rating, Wheat: 60
[12]; [18]
  Plant response rating, Pigweed: 70
[12]; [19]
  Plant response rating, Pigweed: 60
[12]; [20]
  Plant response rating, Pigweed: 100
[13]; [14]
  Soybean plant response rating: 0
[13]; [15]
  Soybean plant response rating: 0
[13]; [16]
  Plant response rating, Soybean: 100
[13]
  Plant response rating (scale of 0 to 100), Soybean: 0
